PMC6718736, “Validation of in vitro methods for human cytochrome P450 enzyme induction: Outcome of a multi-laboratory study” (Toxicology in Vitro, 2019)
Like-named read-outs stand apart in the source and are kept apart here.

Tests used:
CYP = CYP isoforms induced; ref Abadie et al. (2009), Richert et al. (2010), Preissner et al. (2010), Hoffmann et al. (2014); cited from earlier work
[1] = cited from earlier work
CYP3A4 [2] = conditions: cited from earlier work
CYP3A4 [3] = experiment: CYP3A4 enzyme induction assay in cryopreserved HepaRG cells (midazolam probe, LC/MS); type: in vitro ADME, human; conditions: for Assigned classification CYP3A4: HepaRG; for Assigned classification CYP3A4: key: 1=Positive=inducer; 0=Negative=non-inducer
CYP2B6 [4] = experiment: CYP2B6 enzyme induction assay in cryopreserved HepaRG cells (bupropion probe, LC/MS); type: in vitro ADME, human; conditions: for Prediction in vivo inducer: Cmax/F2 >0.5 criterion; for Assigned classification CYP2B6: HepaRG; for Assigned classification CYP2B6: key: 1=Positive=inducer; 0=Negative=non-inducer
CYP1A2 [5] = experiment: CYP1A2 enzyme induction assay in cryopreserved HepaRG cells (phenacetin probe, LC/MS); type: in vitro ADME, human; conditions: for Prediction in vivo inducer: Cmax/F2 >0.5 criterion; for Assigned classification CYP1A2: HepaRG; for Assigned classification CYP1A2: key: 1=Positive=inducer; 0=Negative=non-inducer
CYP2B6 [6] = experiment: CYP2B6 enzyme induction assay in cryopreserved primary human hepatocytes (PHH); type: in vitro ADME; conditions: for Assigned classification CYP2B6: PHH;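 for Assigned classification CYP2B6: code 1 means positive inducer and 0 means non-inducer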
CYP1A2 [7] = experiment: CYP1A2 enzyme induction assay in cryopreserved primary human hepatocytes (PHH); type: in vitro ADME; conditions: for Prediction in vivo inducer: Cmax/F2 >0.5 criterion; for Assigned classification CYP1A2: PHH;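 for Assigned classification CYP1A2: code 1 means positive inducer and 0 means non-inducer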
CYP3A4 [8] = experiment: CYP3A4 enzyme induction assay in cryopreserved primary human hepatocytes (PHH); conditions: for Assigned classification CYP3A4: PHH
CYP1A2 [9] = conditions: cited from earlier work; for CYP1A2 induction in vivo: human, ref Andersson, 1996
[10] = human in vivo, CYP named without remark = induced, ref references in the cell, Washington University database, Hoffmann et al. (2014), Pelkonen et al. (2008), Hukkanen et al. (2012)

For `COc1ccc2[nH]c([S+]([O-])Cc3ncc(C)c(OC)c3C)nc2c1` (stereo not shown) [Omeprazole], which “CYP induction in vitro (human hepatocytes)” value (CYP) is on record?
Its value is “CYP1A2, CYP2B6, CYP3A4”.

And the Cmax ([1]; human in vivo plasma concentration, normal dose)?
Its Cmax is 680 to 3500 nM.

And the Cmax ([1]; human in vivo, normal dose (Table 10))?
Its Cmax is 680 to 3500 nM.

And the Induction in vivo (CYP3A4 [2]; CYP3A4, human in vivo reference classification (Table 11))?
The Induction in vivo was “No”.

And the “CYP induction in vivo literature reference: CYP3A4” value (CYP3A4 [2]; [10])?
Its value is “NOT induced”.

And the Induction in vitro (CYP3A4 [3]; CYP3A4, HepaRG cells)?
The Induction in vitro was “No”.

What about the “Prediction in vivo inducer” value (CYP3A4 [3]; CYP3A4, HepaRG cells) of the same compound?
The value was “No”.

What about the “Prediction in vivo inducer” value (CYP3A4 [3]; CYP3A4, HepaRG cells, Cmax/F2 >0.5 criterion) of the same compound?
The value was “non-inducer”.

And the “Assigned classification CYP3A4” value (CYP3A4 [3]; Lab 1, batch 20)?
Its value is 0.

What about the “Assigned classification CYP3A4” value (CYP3A4 [3]; Lab 1, batch 35) of the same compound?
The value was 0.

And the “Assigned classification CYP3A4” value (CYP3A4 [3]; Lab 1, batch 36)?
Its value is 0.

What about the “Assigned classification CYP3A4” value (CYP3A4 [3]; Lab 2, batch 20) of the same compound?
The value was 0.

And the “Assigned classification CYP3A4” value (CYP3A4 [3]; Lab 2, batch 35)?
Its value is 0.

And the “Assigned classification CYP3A4” value (CYP3A4 [3]; Lab 2, batch 36)?
Its value is 0.

What about the “Assigned classification CYP3A4” value (CYP3A4 [3]; Lab 3, batch 20) of the same compound?
The value was 0.

And the “Assigned classification CYP3A4” value (CYP3A4 [3]; Lab 3, batch 35)?
The value was 0.

What about the “Assigned classification CYP3A4” value (CYP3A4 [3]; Lab 3, batch 36) of the same compound?
Its value is 0.

What about the “Prediction in vivo inducer” value (CYP2B6 [4]; CYP2B6, HepaRG cells) of the same compound?
The value was “No”.

What about the “Prediction in vivo inducer” value (CYP2B6 [4]; CYP2B6, HepaRG cells, listed as omeprazole) of the same compound?
Its value is “predicted as a non-inducer”.

And the Induction in vitro (CYP2B6 [4]; CYP2B6, HepaRG cells, positive in one batch in each of the three laboratories)?
The Induction in vitro was “No”.

What about the “Assigned classification CYP2B6” value (CYP2B6 [4]; Lab 1, batch 20) of the same compound?
The value was 0.

What about the “Assigned classification CYP2B6” value (CYP2B6 [4]; Lab 1, batch 35) of the same compound?
Its value is 0.

What about the “Assigned classification CYP2B6” value (CYP2B6 [4]; Lab 1, batch 36) of the same compound?
The value was 0.

What about the “Assigned classification CYP2B6” value (CYP2B6 [4]; Lab 2, batch 20) of the same compound?
Its value is 0.

What about the “Assigned classification CYP2B6” value (CYP2B6 [4]; Lab 2, batch 35) of the same compound?
Its value is 0.

What about the “Assigned classification CYP2B6” value (CYP2B6 [4]; Lab 2, batch 36) of the same compound?
Its value is 1.

And the “Assigned classification CYP2B6” value (CYP2B6 [4]; Lab 3, batch 20)?
The value was 1.

And the “Assigned classification CYP2B6” value (CYP2B6 [4]; Lab 3, batch 35)?
Its value is 0.

What about the “Assigned classification CYP2B6” value (CYP2B6 [4]; Lab 3, batch 36) of the same compound?
Its value is 0.

And the “Prediction in vivo inducer” value (CYP1A2 [5]; CYP1A2, HepaRG cells)?
The value was “No”.

What about the “Prediction in vivo inducer” value (CYP1A2 [5]; CYP1A2, HepaRG cells, listed as omeprazole) of the same compound?
The value was “non-inducer”.

What about the F2 (CYP1A2 [5]; CYP1A2, HepaRG cells, in vitro concentration producing 2-fold induction) of the same compound?
Its F2 is 12.9 µM.

What about the Induction in vitro (CYP1A2 [5]; CYP1A2, HepaRG cells, positive in one batch in each of the three laboratories) of the same compound?
The Induction in vitro was “Yes”.

What about the “Assigned classification CYP1A2” value (CYP1A2 [5]; Lab 1, batch 20) of the same compound?
Its value is 1.

And the “Assigned classification CYP1A2” value (CYP1A2 [5]; Lab 1, batch 35)?
The value was 1.

What about the “Assigned classification CYP1A2” value (CYP1A2 [5]; Lab 1, batch 36) of the same compound?
The value was 1.

What about the “Assigned classification CYP1A2” value (CYP1A2 [5]; Lab 2, batch 20) of the same compound?
The value was 1.

What about the “Assigned classification CYP1A2” value (CYP1A2 [5]; Lab 2, batch 35) of the same compound?
Its value is 1.

And the “Assigned classification CYP1A2” value (CYP1A2 [5]; Lab 2, batch 36)?
Its value is 1.

And the “Assigned classification CYP1A2” value (CYP1A2 [5]; Lab 3, batch 20)?
The value was 1.

What about the “Assigned classification CYP1A2” value (CYP1A2 [5]; Lab 3, batch 35) of the same compound?
Its value is 1.

What about the “Assigned classification CYP1A2” value (CYP1A2 [5]; Lab 3, batch 36) of the same compound?
Its value is 1.

And the F2 (CYP2B6 [6]; CYP2B6, PHH)?
Its F2 is 38.6 to 116 µM.

What about the Induction in vitro (CYP2B6 [6]; CYP2B6, PHH) of the same compound?
Its Induction in vitro is “Yes”.

What about the “Prediction in vivo inducer” value (CYP2B6 [6]; CYP2B6, PHH) of the same compound?
The value was “No”.

What about the “Prediction in vivo inducer” value (CYP2B6 [6]; CYP2B6, PHH, Cmax/F2 >0.5 criterion) of the same compound?
Its value is “non-inducer”.

What about the “Assigned classification CYP2B6” value (CYP2B6 [6]; Lab 1, batch 0 6 A) of the same compound?
The value was 1.

What about the “Assigned classification CYP2B6” value (CYP2B6 [6]; Lab 1, batch 4 0 8) of the same compound?
Its value is 1.

What about the “Assigned classification CYP2B6” value (CYP2B6 [6]; Lab 1, batch 8 0 8) of the same compound?
The value was 0.

What about the “Assigned classification CYP2B6” value (CYP2B6 [6]; Lab 2, batch 0 6 A) of the same compound?
Its value is 1.

What about the “Assigned classification CYP2B6” value (CYP2B6 [6]; Lab 2, batch 4 0 8) of the same compound?
Its value is 0.

And the “Assigned classification CYP2B6” value (CYP2B6 [6]; Lab 2, batch 8 0 8)?
Its value is 0.

What about the “Assigned classification CYP2B6” value (CYP2B6 [6]; Lab 3, batch 0 6 A) of the same compound?
Its value is 1.

What about the “Assigned classification CYP2B6” value (CYP2B6 [6]; Lab 3, batch 4 0 8) of the same compound?
Its value is 1.

And the “Assigned classification CYP2B6” value (CYP2B6 [6]; Lab 3, batch 8 0 8)?
The value was 1.

And the “Prediction in vivo inducer” value (CYP1A2 [7]; CYP1A2, PHH)?
Its value is “No”.

And the “Prediction in vivo inducer” value (CYP1A2 [7]; CYP1A2, PHH, listed as omeprazole)?
Its value is “non-inducer”.

And the F2 (CYP1A2 [7]; CYP1A2, PHH, in vitro concentration producing 2-fold induction)?
The F2 was 38.6 to 118 µM.

What about the Induction in vitro (CYP1A2 [7]; CYP1A2, PHH, positive in one donor in each of the three laboratories) of the same compound?
Its Induction in vitro is “Yes”.

What about the “Assigned classification CYP1A2” value (CYP1A2 [7]; Lab 1, batch 0 6 A) of the same compound?
The value was 1.

What about the “Assigned classification CYP1A2” value (CYP1A2 [7]; Lab 1, batch 4 0 8) of the same compound?
Its value is 1.

And the “Assigned classification CYP1A2” value (CYP1A2 [7]; Lab 1, batch 8 0 8)?
The value was 1.

And the “Assigned classification CYP1A2” value (CYP1A2 [7]; Lab 2, batch 0 6 A)?
Its value is 1.

And the “Assigned classification CYP1A2” value (CYP1A2 [7]; Lab 2, batch 4 0 8)?
The value was 1.

And the “Assigned classification CYP1A2” value (CYP1A2 [7]; Lab 2, batch 8 0 8)?
Its value is 1.

And the “Assigned classification CYP1A2” value (CYP1A2 [7]; Lab 3, batch 0 6 A)?
Its value is 1.

What about the “Assigned classification CYP1A2” value (CYP1A2 [7]; Lab 3, batch 4 0 8) of the same compound?
Its value is 1.

What about the “Assigned classification CYP1A2” value (CYP1A2 [7]; Lab 3, batch 8 0 8) of the same compound?
Its value is 1.

And the F2 (CYP3A4 [8]; CYP3A4, PHH)?
The F2 was 38.7 to 117 µM.

And the Induction in vitro (CYP3A4 [8]; CYP3A4, PHH)?
The Induction in vitro was “Yes”.

What about the “Prediction in vivo inducer” value (CYP3A4 [8]; CYP3A4, PHH) of the same compound?
The value was “No”.

And the “Prediction in vivo inducer” value (CYP3A4 [8]; CYP3A4, PHH, Cmax/F2 >0.5 criterion)?
The value was “non-inducer”.

What about the “Assigned classification CYP3A4” value (CYP3A4 [8]; Lab 1, batch 0 6 A) of the same compound?
Its value is 1.

And the “Assigned classification CYP3A4” value (CYP3A4 [8]; Lab 1, batch 4 0 8)?
Its value is 0.

And the “Assigned classification CYP3A4” value (CYP3A4 [8]; Lab 1, batch 8 0 8)?
The value was 1.

What about the “Assigned classification CYP3A4” value (CYP3A4 [8]; Lab 2, batch 0 6 A) of the same compound?
The value was 1.

What about the “Assigned classification CYP3A4” value (CYP3A4 [8]; Lab 2, batch 4 0 8) of the same compound?
Its value is 0.

What about the “Assigned classification CYP3A4” value (CYP3A4 [8]; Lab 2, batch 8 0 8) of the same compound?
The value was 0.

What about the “Assigned classification CYP3A4” value (CYP3A4 [8]; Lab 3, batch 0 6 A) of the same compound?
The value was 1.

What about the “Assigned classification CYP3A4” value (CYP3A4 [8]; Lab 3, batch 4 0 8) of the same compound?
The value was 0.

And the “Assigned classification CYP3A4” value (CYP3A4 [8]; Lab 3, batch 8 0 8)?
The value was 1.

What about the Induction in vivo (CYP1A2 [9]; CYP1A2, human, ref Table 1) of the same compound?
The Induction in vivo was “No”.

And the “CYP induction in vivo literature reference: CYP1A2” value (CYP1A2 [9]; [10])?
The value was “NOT induced at clinically used doses”.

What about the “CYP1A2 induction in vivo” value (CYP1A2 [9]; 120 mg doses or poor metabolizers (40 mg dose)) of the same compound?
The value was “weak inducer”.

What about the “CYP1A2 induction in vivo” value (CYP1A2 [9]; normal doses (20-40 mg)) of the same compound?
The value was “not a CYP1A2 inducer”.
